From ChEMBL document CHEMBL3639255, “Bivalent diazo bicyclic Smac mimetics and the uses thereof” (2014)

Experiments:
[1] = molecular target: Baculoviral IAP repeat-containing protein 3 (Homo sapiens, UniProt Q13489); assay: (§1) Fluorescence Polarization-Based Assays: An in vitro fluorescence polarization (FP) based binding assay was used to test the binding ability of the compounds of the present invention to certain IAP proteins (Nikolovska-Coleska et al., Anal. Biochem. 332:261-73 (2004)). he FP-based assay for XIAP BIR3 protein was described in detail previously (Nikolovska-Coleska et al., Anal. Biochem. 332:261-73 (2004)). Briefly, 5-carboxyfluorescein was coupled to the lysine side chain of a mutated Smac peptide with the sequence (AbuRPFK-Fam) and this fluorescently tagged peptide (named SM5F) was used as the fluorescent tracer in FP-based binding assay to XIAP BIR3.
Baculoviral IAP repeat-containing protein 3, sequence (Q13489 whole entry, looked up, stated change not applied): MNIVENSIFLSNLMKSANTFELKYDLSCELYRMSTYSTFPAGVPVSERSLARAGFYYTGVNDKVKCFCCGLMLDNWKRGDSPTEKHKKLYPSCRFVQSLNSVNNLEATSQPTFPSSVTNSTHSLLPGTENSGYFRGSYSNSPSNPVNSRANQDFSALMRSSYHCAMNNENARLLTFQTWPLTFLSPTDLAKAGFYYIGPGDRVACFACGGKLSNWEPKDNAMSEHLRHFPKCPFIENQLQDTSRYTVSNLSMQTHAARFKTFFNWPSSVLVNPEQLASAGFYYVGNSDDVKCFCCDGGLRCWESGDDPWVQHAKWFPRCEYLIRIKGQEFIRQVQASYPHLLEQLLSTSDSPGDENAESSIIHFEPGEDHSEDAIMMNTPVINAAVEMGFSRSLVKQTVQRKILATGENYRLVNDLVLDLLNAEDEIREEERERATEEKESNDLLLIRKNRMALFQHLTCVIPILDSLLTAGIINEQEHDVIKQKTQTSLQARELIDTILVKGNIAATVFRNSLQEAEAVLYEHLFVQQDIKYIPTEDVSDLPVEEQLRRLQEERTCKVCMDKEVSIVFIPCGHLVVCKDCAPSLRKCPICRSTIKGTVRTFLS

[2] = molecular target: Baculoviral IAP repeat-containing protein 2 (Homo sapiens, UniProt Q13490); assay: as §1
Baculoviral IAP repeat-containing protein 2, sequence (Q13490 whole entry, looked up, change not shown): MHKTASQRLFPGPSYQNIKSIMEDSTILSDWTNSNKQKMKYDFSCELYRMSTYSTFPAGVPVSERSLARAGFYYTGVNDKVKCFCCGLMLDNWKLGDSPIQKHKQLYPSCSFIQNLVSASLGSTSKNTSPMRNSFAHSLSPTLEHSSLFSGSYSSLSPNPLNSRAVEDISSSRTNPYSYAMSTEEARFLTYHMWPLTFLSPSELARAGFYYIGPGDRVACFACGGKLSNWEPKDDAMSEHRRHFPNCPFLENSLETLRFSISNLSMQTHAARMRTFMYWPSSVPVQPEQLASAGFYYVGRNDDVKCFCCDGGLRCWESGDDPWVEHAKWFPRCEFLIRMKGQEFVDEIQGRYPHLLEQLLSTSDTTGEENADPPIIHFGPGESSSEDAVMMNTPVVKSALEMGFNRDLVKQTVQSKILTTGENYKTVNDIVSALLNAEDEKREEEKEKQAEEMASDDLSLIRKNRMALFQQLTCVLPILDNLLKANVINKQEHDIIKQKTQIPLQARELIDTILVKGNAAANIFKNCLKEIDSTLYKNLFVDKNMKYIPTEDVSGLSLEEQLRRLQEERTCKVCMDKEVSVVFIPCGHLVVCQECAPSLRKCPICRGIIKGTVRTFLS

Compound	IC50 [1]	IC50 [2]
CN[C@@H](C)C(=O)N[C@H]1CN(C(=O)CCCCCCCCCCC(=O)N2CC[C@H]3CC[C@@H](c4nc5c(-c6ccccc6)cccc5[nH]4)N3C(=O)[C@@H](NC(=O)[C@H](C)NC)C2)CC[C@H]2CC[C@@H](c3nc4c(-c5ccccc5)cccc4[nH]3)N2C1=O	< 0.05 µM	
C=CC(C=C)c1cccc2[nH]c([C@@H]3CC[C@@H]4CCN(C(=O)CCCCCCCCCCC(=O)N5CC[C@H]6CC[C@@H](c7nc8c(-c9ccccc9)cccc8[nH]7)N6C(=O)[C@@H](NC(=O)[C@H](C)NC)C5)C[C@H](NC(=O)[C@H](C)NC)C(=O)N43)nc12		< 0.05 µM
